2 substances from patent US11548946B2, “Carrier-PD-L1 binding agent compositions for treating cancers” (Mayo Foundation for Medical Education and Research, priority 2016, dated 2023) can be followed below.

For one test, the target named is ABX. As to the kind of experiment: Biolayer interferometry (BLItz) of biotinylated atezolizumab on streptavidin probes exposed to ABX. The settings on record: ABX at 100, 500, 1000 μg/mL in 1×PBS; read-out: Kd (binding affinity between atezolizumab and ABX). The protocol: Biolayer interferometry (BLItz) (Forte Bioscience) was performed using streptavidin probes.
To determine whether atezolizumab and ABX are capable of interacting to form nanoparticle complexes, Biolayer interferometry (BLItz) (Forte Bioscience) was performed using streptavidin probes. 100 ug/ml of biotinylated atezolizumab in 1×PBS was bound to the streptavidin probe. After washing unbound atezolizumab from the probe, the antibody-bound probe was exposed to ABX at concentrations of 100, 500, 1000 μg/mL in 1×PBS. An antibody probe exposed to PBS was used as background and background was subtracted. BLItz software was used to calculate dissociation constants (FIG. 7).
(In general: Biolayer interferometry detects binding as a change in optical thickness at a sensor tip.)

For test [1], the system named is PD-L1 positive C8161 melanoma tumor cells. As to the kind of experiment: In vivo efficacy in athymic nude mice bearing C8161 melanoma tumors. The settings on record: single IV tail vein dose; atezolizumab 18 mg/kg, ABX 45 mg/kg, AA130 18 mg/kg atezolizumab and 45 mg/kg ABX. The protocol: FIGS. 11A-11D show the change in tumor volume over time in mice that were injected with 2×10^6 PD-L1 positive C8161 melanoma tumor cells, then treated by 100 ul IV tail vein injection with saline (FIG. 11A), atezolizumab alone (18 mg/kg; FIG. 11B), ABX alone (45 mg/kg; FIG. 11C) and AA130 (18 mg/kg atezolizumab and 45 mg/kg ABX; FIG. 11D) one time. Tumor growth was monitored 3 times per week. Tumor size was calculated with the equation: (length×width^2)/2.
Kaplan Meier curves were generated using Graph Pad software. The median survival for each group was 14, 13, 16, and 21.5 days for saline, atezolizumab, Abraxane and AA130, respectively. Survival differences between AA130 and all other groups were significant, with p-values of 0.0008 for saline, 0.0015 for atezolizumab, and 0.0113 for ABX.
Athymic nude mice (Harlan Sprague Dawley) were injected with 2×10^6 PD-L1 positive C8161 melanoma tumor cells. The tumors were allowed to grow until about 600 mm^3 and were treated by 100 μl IV tail vein injection with saline, atezolizumab alone (18 mg/kg), ABX alone (45 mg/kg) and AA130 (18 mg/kg atezolizumab and 45 mg/kg ABX) one time (FIGS. 11A-11D). Tumor growth was monitored 3 times/week. Tumor size was calculated with the equation: (length×width^2)/2.
Kaplan Meier curves were generated using Graph Pad software. […]

A further test deals with T1, CD20 (Homo sapiens, UniProt P11836).
T1 construct: CD20 positive Daudi lymphoma cells; endogenous in cells; host or cells: Daudi lymphoma cells
T1 sequence (P11836 1-297): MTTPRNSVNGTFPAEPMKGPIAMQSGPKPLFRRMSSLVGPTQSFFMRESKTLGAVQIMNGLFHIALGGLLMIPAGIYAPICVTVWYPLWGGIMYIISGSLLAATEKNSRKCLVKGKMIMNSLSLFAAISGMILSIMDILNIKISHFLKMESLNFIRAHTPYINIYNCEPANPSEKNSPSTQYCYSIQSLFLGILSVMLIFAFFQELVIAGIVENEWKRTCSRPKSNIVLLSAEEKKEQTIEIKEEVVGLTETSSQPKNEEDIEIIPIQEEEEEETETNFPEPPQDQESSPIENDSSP
Nature of the test: Flow cytometry: blocking of fluorescent anti-CD20 labeling of Daudi cells. Format: cell-based. The following applies: CD20 positive Daudi lymphoma cells pretreated prior to CD20 labeling. From the text: FIGS. 1A-1F depicts the results of an experiment in which CD20 positive Daudi lymphoma cells were labeled with fluorescent tagged anti-human CD20 or isotype matched control in panels F and A, respectively, and analyzed by flow cytometry. In the other panels, the Daudi cells were pretreated with ABRAXANE® (ABX; FIG. 1B), ABX/rituximab nanoparticles (AR160; FIG. 1C), lyophilized and resuspended AR160 (AR160L; FIG. 1D), or Rituxan (FIG. 1E) prior to CD20 labeling.
CD20 positive Daudi lymphoma cells were labeled with fluorescent tagged anti-human CD20 or isotype matched control in panel F and A, respectively, and analyzed by flow cytometry. In the other panels, the Daudi cells were pretreated with ABX, AR160, AR160L (AR160 lyophilized and resuspended into a solution suitable for injection), or Rituxan prior to CD20 labeling.

By Kd is commonly meant the concentration at which binding is half-saturated.

Turning to “atezolizumab: anti-PD-L1 mAb, humanized monoclonal antibody”, the Kd at ABX was 1.46 nM. For the same substance, the median survival in test [1] is given as 13 days. Consider “Rituxan: rituximab, anti-CD20 antibody used as free antibody control”, for which the “CD20 binding of fluorescent anti-CD20 antibody after pretreatment” value with CD20 is recorded as “specifically blocked”.
